ChEMBL document CHEMBL3259619, “Antibacterial activity of a series of N2,N4-disubstituted quinazoline-2,4-diamines” (J Med Chem, 2014)
In brackets after ≈: the same amount, converted by molar mass. Activity calls are given as the source filed them.

Experiments:
[1] = system: Staphylococcus aureus; assay: Antimicrobial activity against methicillin-resistant Staphylococcus aureus CBD-635 assessed as complete inhibition of bacterial growth at 5 times MIC after overnight incubation in presence of tetrahydrofolic acid; type: functional, organism-based
[2] = system: Staphylococcus aureus; assay: Antimicrobial activity against methicillin-resistant Staphylococcus aureus CBD-635 assessed as zone of inhibition at 5 mg/ml after 24 hrs by disk diffusion assay; type: functional; conditions: for zone of inhibition at 5000 µg/mL: CBD-635, 24 h, read-out: IZ
[3] = system: Staphylococcus aureus; assay: Antimicrobial activity against methicillin-resistant Staphylococcus aureus CBD-635 assessed as complete inhibition of bacterial growth after overnight incubation; type: functional

`CNc1nc(NCc2ccco2)c2ccccc2n1` was tested. Which inhibition [1] did it give?
The inhibition was “inactive”.

And the “inhibition zone (IZ)” value [2]?
The value was “inactive”.

With `COc1cccc2c(NCc3ccco3)nc(NC(C)C)nc12` as the compound, how does the inhibition [1] read?
The inhibition was “inactive”.

And the “inhibition zone (IZ)” value [2]?
Its value is “inactive”.

With `CC(C)Nc1nc(NC(C)C)c2ccccc2n1` as the compound, how does the inhibition [1] read?
Its inhibition is “inactive”.

What about the “inhibition zone (IZ)” value [2] of the same compound?
Its value is “inactive”.

What does the source list for `COc1ccc2c(NCc3ccco3)nc(NC(C)C)nc2c1`?
inhibition [1]: inactive; inhibition zone (IZ) [2]: inactive

Which inhibition [1] does the source give for `CC(C)Nc1nc(NCc2ccco2)nc2ccccc12` here?
Its inhibition is “inactive”.

What about the MIC [3] of the same compound?
The MIC was 35 µM (≈ 9.88 µg/mL).

What about the zone of inhibition at 5000 µg/mL [2] of the same compound?
The zone of inhibition at 5000 µg/mL was 12 mm.

What does the source list for `CC(C)Nc1nc(N(C)C)c2ccccc2n1`?
inhibition [1]: inactive; inhibition zone (IZ) [2]: inactive

Which results are given for `CC(C)Nc1nc(Nc2ccccc2)c2ccccc2n1`?
inhibition [1]: inactive; MIC [3]: 36 µM (≈ 10 µg/mL); zone of inhibition at 5000 µg/mL [2]: 10 mm

What does the source list for `CNc1nc(NC)c2ccccc2n1`?
inhibition [1]: inactive; inhibition zone (IZ) [2]: inactive

Which inhibition [1] does the source give for `CCNc1nc(NC(C)C)c2ccccc2n1` here?
The inhibition was “inactive”.

What about the “inhibition zone (IZ)” value [2] of the same compound?
The value was “inactive”.

Which results are given for `Cc1ccc2nc(NC(C)C)nc(NCc3ccco3)c2c1`?
inhibition [1]: inactive; inhibition zone (IZ) [2]: inactive

With `CNc1nc(NC(C)C)c2ccccc2n1` as the compound, how does the inhibition [1] read?
Its inhibition is “inactive”.

And the “inhibition zone (IZ)” value [2]?
The value was “inactive”.

What does the source list for `Cc1ccc(Nc2nc(NCc3ccco3)c3ccccc3n2)cc1`?
inhibition [1]: inactive; MIC [3]: 30 µM (≈ 9.91 µg/mL); zone of inhibition at 5000 µg/mL [2]: 9 mm

What does the source list for `CCNc1nc(NC(C)C)nc2ccccc12`?
inhibition [1]: inactive; inhibition zone (IZ) [2]: inactive

Which inhibition [1] does the source give for `CC(C)Nc1nc(NC2CC2)nc2ccccc12` here?
The inhibition was “inactive”.

And the “inhibition zone (IZ)” value [2]?
The value was “inactive”.

With `FC(F)(F)CNc1nc(NCc2ccco2)c2ccccc2n1` as the compound, how does the inhibition [1] read?
The inhibition was “inactive”.

What about the “inhibition zone (IZ)” value [2] of the same compound?
The value was “inactive”.

With `CNc1nc(NC2CCCC2)nc2ccccc12` as the compound, how does the inhibition [1] read?
The inhibition was “inactive”.

What about the “inhibition zone (IZ)” value [2] of the same compound?
The value was “inactive”.

With `CC(C)Nc1nc(NCCO)nc2ccccc12` as the compound, how does the inhibition [1] read?
The inhibition was “inactive”.

What about the “inhibition zone (IZ)” value [2] of the same compound?
Its value is “inactive”.

How did the inhibition [1] turn out when `CCOC(=O)CNc1nc(NC(C)C)nc2ccccc12` was run?
Its inhibition is “inactive”.

What about the “inhibition zone (IZ)” value [2] of the same compound?
Its value is “inactive”.

For `OCCNc1nc(NCc2ccco2)c2ccccc2n1`, which inhibition [1] is on record?
Its inhibition is “inactive”.

And the “inhibition zone (IZ)” value [2]?
Its value is “inactive”.

`Cc1ccc2c(NCc3ccco3)nc(NC(C)C)nc2c1` was tested. Which inhibition [1] did it give?
Its inhibition is “inactive”.

And the “inhibition zone (IZ)” value [2]?
Its value is “inactive”.

`COc1ccc(CNc2nc(NCc3ccc(Cl)cc3)c3ccc(Cl)cc3n2)cc1` was tested. Which inhibition [1] did it give?
The inhibition was “inactive”.

What about the MIC [3] of the same compound?
The MIC was 51 µM (≈ 22.4 µg/mL).

`CCNc1nc(NCc2ccco2)c2ccccc2n1` was tested. Which inhibition [1] did it give?
Its inhibition is “inactive”.

What about the “inhibition zone (IZ)” value [2] of the same compound?
Its value is “inactive”.

Which inhibition [1] does the source give for `CNc1nc(NCCO)nc2ccccc12` here?
The inhibition was “inactive”.

And the “inhibition zone (IZ)” value [2]?
Its value is “inactive”.

What does the source list for `c1coc(CNc2nc(NC3CCC3)nc3ccccc23)c1`?
inhibition [1]: inactive; inhibition zone (IZ) [2]: inactive

How did the inhibition [1] turn out when `c1coc(CNc2nc(NC3CC3)nc3ccccc23)c1` was run?
The inhibition was “inactive”.

And the “inhibition zone (IZ)” value [2]?
The value was “inactive”.

Which results are given for `COc1ccc(CNc2nc(NCc3ccccc3)c3ccc(Cl)cc3n2)cc1`?
inhibition [1]: inactive; MIC [3]: 22 µM (≈ 8.91 µg/mL)

How did the inhibition [1] turn out when `CNc1nc(NC2CC2)nc2ccccc12` was run?
Its inhibition is “inactive”.

And the “inhibition zone (IZ)” value [2]?
The value was “inactive”.

Which results are given for `CC(C)Nc1nc(NCC2CCCO2)c2ccccc2n1` (stereo unspecified)?
inhibition [1]: inactive; inhibition zone (IZ) [2]: inactive

Which inhibition [1] does the source give for `Cc1cccc2nc(NC(C)C)nc(NCc3ccco3)c12` here?
The inhibition was “inactive”.

And the “inhibition zone (IZ)” value [2]?
Its value is “inactive”.

With `CC(C)Nc1nc(NC2CC2)c2ccccc2n1` as the compound, how does the inhibition [1] read?
The inhibition was “inactive”.

And the “inhibition zone (IZ)” value [2]?
Its value is “inactive”.

Which results are given for `CC(C)Nc1nc(NCC(F)(F)F)c2ccccc2n1`?
inhibition [1]: inactive; inhibition zone (IZ) [2]: inactive

With `Clc1ccc(CNc2nc(NCc3ccc(Cl)cc3)c3ccc(Cl)cc3n2)cc1` as the compound, how does the inhibition [1] read?
Its inhibition is “inactive”.

And the MIC [3]?
The MIC was 68 µM (≈ 30.2 µg/mL).

What does the source list for `CC(C)Nc1nc(NC(C)(C)C)c2ccccc2n1`?
inhibition [1]: inactive; inhibition zone (IZ) [2]: inactive

With `CNc1nc(NC(C)C)nc2ccccc12` as the compound, how does the inhibition [1] read?
The inhibition was “inactive”.

What about the “inhibition zone (IZ)” value [2] of the same compound?
The value was “inactive”.
